Data published in US20150283139A1, “CANCER TREATMENT METHOD” (SmithKline Beecham (Cork) Limited, priority 2004, published 2015).

Columns and labels:
[1] = in vivo; cited from earlier work
NSCLC adenocarcinoma = conditions: first-line gefitinib, Asian, female, non-smokers; cited from earlier work
[2] = system: non small cell lung cancer (NSCLC) brain metastases; conditions: eight subjects with newly diagnosed, untreated NSCLC brain metastases; cited from earlier work
[3] = system: brain metastases from erbB-2 overexpressing, metastatic breast cancer; test: Clinical study of orally administered lapatinib, PET scan of brain lesions; assay type: in vivo, human; conditions: one patient, 750 mg lapatinib twice daily, previously treated with trastuzumab
Excerpt: Safety and efficacy assessments (independent review) were to be carried out at 2 and 4-week intervals respectively. PET scans were to be run at baseline, 1 week and 8 weeks and MRI at baseline, 8 weeks, and 16 weeks.

Cn1nnc2c(C(N)=O)ncn2c1=O [Temozolomide]
crossing of the blood-brain barrier [1]: readily crosses the blood-brain barrier

COc1cc2ncnc(Nc3ccc(F)c(Cl)c3)c2cc1OCCCN1CCOCC1 [gefitinib]
partial response rate (NSCLC adenocarcinoma): 69%
systemic disease control rate (NSCLC adenocarcinoma): 80%
subjects with prolonged CNS partial responses [2]: Seven out of eight

CS(=O)(=O)CCNCc1ccc(-c2ccc3ncnc(Nc4ccc(OCc5cccc(F)c5)c(Cl)c4)c3c2)o1.Cc1ccc(S(=O)(=O)O)cc1 [lapatinib, N-{3-Chloro-4-[(3-fluorobenzyl)oxy]phenyl}-6-[5-({[2-(methanesulphonyl)ethyl]amino}methyl)-2-furyl]-4-quinazolinamine ditosylate monhydrate]
initial week 1 PET scan results (brain lesions) [3]: promising activity with a dramatic change in one lesion while other brain lesions showed less change or no change at all
